# Patent US8445281B2, “In vitro exposure of immature oocytes to BDNF enhances generation of embryonic stem cells” (The Board of Trustees of the Leland Stanford Junior …, priority 2006, dated 2013)
# Key:
# [1] = tested on: oocytes (cumulus oocyte complexes); experiment: First polar body extrusion by oocytes in cultured COCs; assay type: cell-based, mouse; conditions: for first polar body extrusion in cultured oocytes: COCs cultured 20 h without FBS, NGF and NT-3 at 10 ng/ml; for effect on the stimulatory effect of BDNF on first polar body extrusion: COCs, cotreatment with BDNF
# Experimental: Evaluation of First Polar Body Extrusion. For evaluating the transition from metaphase I stage to metaphase II (MII) stage oocytes, COCs were obtained from mouse ovaries 48 h after PMSG treatment by puncturing the largest follicles in M2 medium (Specialty Media, Phillipsburg, N.J.). COCs were washed twice, transferred to modified M16 medium (Specialty Media) without FBS, and cultured with or without different doses of BDNF, mouse nerve growth factor (NGF; R & D Systems), or human neurotrophin-3 (NT-3) (R & D Systems) for 20 h at 37° C. in 5% CO2/95% air. Some COCs were also cultured with BDNF with or without the TrkB ectodomain (R & D Systems), pan-specific Trk receptor inhibitor K252a (Calbiochem), or K252b. The occurrence of first polar body extrusion in the oocyte was examined after removing cumulus cells by using a small-bore pipette under Hoffman contrast microscopy (Nikon).
# Trk receptor [2] = experiment: In vivo first polar body extrusion by ovulated oocytes; set-up: species or system mouse; conditions: PMSG-primed mice, hCG with i.p. compound, 12 h after hCG
# Experimental: (§1) In Vivo Analysis. […] For negative controls, the plasma membrane nonsoluble K252b was used. Twelve hours after hCG injection, ovulated COCs were obtained from the oviducts. After treatment with hyaluronidase (Specialty Media) for 1-2 min, oocytes were separated from cumulus cells and the proportion of oocytes showing first polar body extrusion was evaluated. To evaluate the role of BDNF in the conditioning of oocytes for early embryo development, immature mice were treated with PMSG, followed by hCG as described above. […] Fertilized oocytes were separated from cumulus cells, washed three times in M2 medium, and cultured for 5 days in modified M16 medium. Embryonic development was monitored daily, and the progression of fertilized eggs into preimplantation embryos was assessed.
# Trk receptor [3] = experiment: In vivo treatment, progression of zygotes into blastocysts in vitro; set-up: species or system mouse; conditions: 10 μg i.p. at 0, 4, 8 h after hCG; for decrease in number of cells in the blastocysts / suppression of development of zygotes into blastocyst stage embryos: fertilized oocytes cultured 5 days
# Experimental: as §1
# [4] = tested on: oocytes of preovulatory follicles; experiment: Preovulatory follicle culture, GVBD of oocytes; assay type: cell-based, mouse; conditions: cultured preovulatory follicles
# Experimental: Follicle Cultures. Preovulatory follicles were excised from mouse ovaries 48 h after PMSG treatment and cultured to examine nuclear maturation of oocytes (Kawamura et al. (2004) Proc. Natl. Acad. Sci. USA 101, 7323-7328). […] The vials were flushed at the start of the culture with O2/N2 (at a 1:1 ratio), sealed, and cultured at 37° C. with gentle shaking for 6 h. After culture, cumulus oocyte complexes (COCs) were isolated, and, after cumulus cells were removed, oocytes were examined for the occurrence of GVBD.
# [5] = tested on: oocytes (cumulus oocyte complexes); experiment: In vitro maturation, fertilization and early embryonic development; assay type: cell-based, mouse
# Experimental: In Vitro Maturation, Fertilization, and Early Embryonic Development. We performed in vitro maturation of oocytes followed by in vitro fertilization as previously described, with slight modifications. COCs from PMSG-primed mice were obtained in the M2 medium supplemented with 5% FBS before culturing in minimum essential media-α (Invitrogen) supplemented with Earle's salts, 10 μg/ml streptomycin sulfate, 75 μg/ml penicillin G, and 5% FBS in the presence or absence of 3 ng/ml BDNF at 37° C. in 5% CO2/95% air. After 16 h of treatment, cumulus cells were removed and the oocytes were examined and classified according to their developmental stage (germinal vesicle, metaphase I, or MII). MII-stage oocytes were inseminated with sperm from B6D2F1 males and incubated for 4 h at 37° C. in 5% CO2/95% air. After in vitro fertilization, fertilized oocytes were recovered, washed three times, and cultured in human tubal fluid medium (Specialty Media). The following morning, two-cell stage embryos were collected and cultured in 2 ml of modified M16 medium for 5 days more up to the blastocyst stage at 37° C. in 5% CO2/95% air. Embryonic development was monitored daily by Hoffman modulation contrast microscopy, and the progression of fertilized eggs to preimplantation embryos was assessed.
# MII oocytes = experiment: Glutathione content in oocytes; assay type: cell-based, mouse; conditions: COCs treated 16 h
# Experimental: FIGS. 4A-E depict BDNF conditioning of oocytes for development into preimplantation embryos. FIG. 4A is a bar graph indicating the percentage of MII oocytes that developed to two-cell or blastocyst-stage embryos. Specifically, COCs obtained from preovulatory follicles were cultured without (control) or with BDNF (3 ng/ml) for 16 h. After progression to the MII stage, oocytes were inseminated and cultured for 5 days more without hormones. The percentage of MII oocytes that developed to two-cell or blastocyst-stage embryos were evaluated (n=5, 34-95 oocytes per experiment). FIG. 4B indicates the effects of BDNF treatment on glutathione (GSH) content in oocytes. After treatment of COCs for 16 h without (control, C) or with BDNF, glutathione levels in oocytes at MII oocytes were evaluated (mean±SEM, n=6). FIG. 4C depicts the effects of K252a treatment in vivo on the progression of zygotes into blastocysts in vitro. […] After initial injection, mice were allowed to mate with fertile males. Fertilized oocytes were cultured for 5 days, and the number of blastocyst embryos was evaluated. FIG. 4D depicts the effects of K252a treatment on the number of cells in the blastocysts. […]
# Because the oocyte content of glutathione is important to sperm nuclear decondensation, the glutathione concentration in oocytes also was evaluated. […]
# [6] = pretreatment 3 ng/ml BDNF 16 h, then in vitro fertilization without BDNF
Molecule,first polar body extrusion in cultured oocytes [1],effect on the stimulatory effect of BDNF on first polar body extrusion [1],inhibition of first polar body extrusion by ovulated oocytes (Trk receptor [2]),number of ovulated oocytes per animal (Trk receptor [2]),decrease in number of cells in the blastocysts (Trk receptor [3]),suppression of development of zygotes into blastocyst stage embryos (Trk receptor [3]),further results
"TrkB ectodomain: TrkB ectodomain (R & D Systems), antagonises BDNF stimulation",ineffective,blocked,–,–,–,–,–
CC12OC(CC1(O)C(=O)O)n1c3ccccc3c3c4c(c5c6ccccc6n2c5c31)C(=O)NC4 (stereo not shown) [K252b],–,not,ineffective,38.4±8.7,not,ineffective,–
COC(=O)[C@@]1(O)C[C@H]2O[C@]1(C)n1c3ccccc3c3c4c(c5c6ccccc6n2c5c31)C(=O)NC4 [K252a],–,suppressed,30%,37.8±5.3,51%,72%,number of fertilized oocytes vs control (Trk receptor [3]; oocytes collected 22 h after hCG): did not differ
"NT-3: human neurotrophin-3 (R & D Systems) (protein, UniProt P20783 139-257, looked up) Neurotrophin-3: YAEHKSHRGEYSVCDSESLWVTDKSSAIDIRGHQVTVLGEIKTGNSPVKQYFYETRCKEARPVKNGCRGIDDKHWNSQCKTSQTYVRALTSENNKLVGWRWIRIDTSCVCALSRKIGRT",not,–,–,–,–,–,–
"NGF: mouse nerve growth factor (R & D Systems) (protein, UniProt P01139 122-241, looked up) Beta-nerve growth factor: SSTHPVFHMGEFSVCDSVSVWVGDKTTATDIKGKEVTVLAEVNINNSVFRQYFFETKCRASNPVESGCRGIDSKHWNSYCTTTHTFVKALTTDEKQAAWRFIRIDTACVCVLSRKATRRG",not,–,–,–,–,–,–
"BDNF: recombinant human BDNF (Pepro-Tech), neurotrophin, ligand of TrkB (protein, human, recombinant human BDNF (Pepro-Tech), neurotrophin, ligand of TrkB) MTILFLTMVISYFGCMKAAPMKEANIRGQGGLAYPGVRTHGTLESFTVNGPKAGSRGLTSLADTFEHVIEELLDEDQKVRPNEENNKDADLYTSRVMLSSQVPLEPFTPLLFLLEEYKNYLDAANMSMRVRRHSDPARRGELSVCDSISEWVTAADKKTAVDMSGGTFTVTVLEKVPVSKGQLKQYFYETKCNPMGYTKEGCRGIDKRHWNSQCRTTQSYVRALTMDSFTKKRIGWRFIRIDTSCVCTLTIKRGR",increased,–,–,–,–,–,"cumulus cell expansion [4]: did not induce; induction of GVBD in oocytes ([4]; 6 h, 5 μg/ml LH or BDNF): not and lack of effect; increase in proportion of oocytes showing first polar body extrusion (MII-stage oocytes) ([5]; COCs, 3 ng/ml BDNF, 16 h, 5% FBS): more than 2 fold; increase in proportion of MII oocytes that developed into blastocyst-stage embryos [5, 6]: 5 fold; increase in proportion of MII oocytes that developed into two-cell embryos [5, 6]: 2 fold; glutathione content in MII oocytes (MII oocytes): increased"
